Measured values reported in US8846719B2, “Isoxazolo-pyridine derivatives” (Roche Palo Alto LLC, priority 2007, dated 2014).

Biological target: human GABA A receptor α5β3γ2 (Homo sapiens (Human), UniProt P18507+P31644)
Test: [3H]flumazenil competition binding assay, human GABA A α5β3γ2 receptors expressed in HEK293 cells
Details: human receptor; displacement of [3H]flumazenil (0.5 nM); means of two determinations; read-out: hKi GABAAa5
Procedure, shortened: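 Ki values, each the mean of two runs, derive from displacement of [3H]flumazenil from human α5β3γ2 GABA A receptors transiently expressed in HEK293 membranes. Binding ran 1 h at 4° C in Krebs-tris, pH 7.5, before filter harvest and scintillation counting.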

Ki | SMILES
10.6 nM | O=C(NC1CCOCC1)c1ccc(OCc2conc2-c2ccc(F)cc2)nc1 [Example 324, 6-[3-(4-Fluoro-phenyl)-isoxazol-4-ylmethoxy]-N-(tetrahydro-pyran-4-yl)-nicotinamide]
17.4 nM | O=C(NCC1CC1)c1ccc(OCc2conc2-c2ccc(F)cc2)nc1 [Example 328, N-Cyclopropylmethyl-6-[3-(4-fluoro-phenyl)-isoxazol-4-ylmethoxy]-nicotinamide]
15.1 nM | O=C(NCC(F)(F)F)c1ccc(OCc2conc2-c2ccc(F)cc2)nc1 [Example 330, 6-[3-(4-Fluoro-phenyl)-isoxazol-4-ylmethoxy]-N-(2,2,2-trifluoro-ethyl)-nicotinamide]
37.6 nM | CC(=O)NCCNC(=O)c1ccc(OCc2conc2-c2ccc(F)cc2)nc1 [Example 335, N-(2-Acetylamino-ethyl)-6-[3-(4-fluoro-phenyl)-isoxazol-4-ylmethoxy]-nicotinamide]
9.5 nM | C[C@@H](O)CNC(=O)c1ccc(OCc2conc2-c2ccc(F)cc2)nc1 [Example 337, 6-[3-(4-Fluoro-phenyl)-isoxazol-4-ylmethoxy]-N—((R)-2-hydroxy-propyl)-nicotinamide]
23.3 nM | O=C(NCCO)c1ccc(OCc2conc2-c2ccc(F)cc2)nc1 [Example 338, 6-[3-(4-Fluoro-phenyl)-isoxazol-4-ylmethoxy]-N-(2-hydroxy-ethyl)-nicotinamide]
15.1 nM | O=C(NCC(F)(F)F)c1ccc(OCc2conc2-c2ccc(Cl)cc2)nc1 [Example 342, 6-[3-(4-Chloro-phenyl)-isoxazol-4-ylmethoxy]-N-(2,2,2-trifluoro-ethyl)-nicotinamide]
7.1 nM | CC(O)CNC(=O)c1ccc(OCc2conc2-c2ccc(Cl)cc2)nc1 (stereo not drawn) [Example 347, 6-[3-(4-Chloro-phenyl)-isoxazol-4-ylmethoxy]-N-(2-hydroxy-propyl)-nicotinamide]
10.7 nM | C[C@H](CO)NC(=O)c1ccc(OCc2conc2-c2ccc(Cl)cc2)nc1 [Example 354, 6-[3-(4-Chloro-phenyl)-isoxazol-4-ylmethoxy]-N—((R)-2-hydroxy-1-methyl-ethyl)-nicotinamide]
4.3 nM | C[C@@H](CO)NC(=O)c1ccc(OCc2conc2-c2ccc(Cl)cc2)nc1 [Example 355, 6-[3-(4-Chloro-phenyl)-isoxazol-4-ylmethoxy]-N—((S)-2-hydroxy-1-methyl-ethyl)-nicotinamide]
13.1 nM | CC(=O)NCCNC(=O)c1ccc(OCc2conc2-c2ccc(Cl)cc2)nc1 [Example 356, N-(2-Acetylamino-ethyl)-6-[3-(4-chloro-phenyl)-isoxazol-4-ylmethoxy]-nicotinamide]

More lines, now with the values behind:

SMILES | Ki
CC(CO)NC(=O)c1ccc(OCc2conc2-c2ccc(F)cc2)nc1 (stereo not drawn) [Example 325, 6-[3-(4-Fluoro-phenyl)-isoxazol-4-ylmethoxy]-N-(2-hydroxy-1-methyl-ethyl)-nicotinamide] | 9 nM
C[C@H](CO)NC(=O)c1ccc(OCc2conc2-c2ccc(F)cc2)nc1 [Example 326, 6-[3-(4-Fluoro-phenyl)-isoxazol-4-ylmethoxy]-N—((R)-2-hydroxy-1-methyl-ethyl)-nicotinamide] | 27.7 nM
C[C@@H](CO)NC(=O)c1ccc(OCc2conc2-c2ccc(F)cc2)nc1 [Example 327, 6-[3-(4-Fluoro-phenyl)-isoxazol-4-ylmethoxy]-N—((S)-2-hydroxy-1-methyl-ethyl)-nicotinamide] | 13.9 nM
O=C(NC1CC1)c1ccc(OCc2conc2-c2ccc(F)cc2)nc1 [Example 329, N-Cyclopropyl-6-[3-(4-fluoro-phenyl)-isoxazol-4-ylmethoxy]-nicotinamide] | 12.9 nM
O=C(N[C@H]1CCC[C@@H]1O)c1ccc(OCc2conc2-c2ccc(F)cc2)nc1 [Example 331, 6-[3-(4-Fluoro-phenyl)-isoxazol-4-ylmethoxy]-N-((1S,2S)-2-hydroxy-cyclopentyl)-nicotinamide] | 17.8 nM
O=C(NCC(O)C(F)(F)F)c1ccc(OCc2conc2-c2ccc(F)cc2)nc1 (stereo not drawn) [Example 333, 6-[3-(4-Fluoro-phenyl)-isoxazol-4-ylmethoxy]-N-(3,3,3-trifluoro-2-hydroxy-propyl)-nicotinamide] | 13.1 nM
O=C(NC(CO)CO)c1ccc(OCc2conc2-c2ccc(F)cc2)nc1 [Example 334, 6-[3-(4-Fluoro-phenyl)-isoxazol-4-ylmethoxy]-N-(2-hydroxy-1-hydroxymethyl-ethyl)-nicotinamide] | 21.2 nM
COCCNC(=O)c1ccc(OCc2conc2-c2ccc(F)cc2)nc1 [Example 336, 6-[3-(4-Fluoro-phenyl)-isoxazol-4-ylmethoxy]-N-(2-methoxy-ethyl)-nicotinamide] | 40.7 nM
O=C(NCC1(O)CC1)c1ccc(OCc2conc2-c2ccc(F)cc2)nc1 [Example 339, 6-[3-(4-Fluoro-phenyl)-isoxazol-4-ylmethoxy]-N-(1-hydroxy-cyclopropylmethyl)-nicotinamide] | 23.1 nM
O=C(NC1CCS(=O)(=O)C1)c1ccc(OCc2conc2-c2ccc(F)cc2)nc1 (stereo not drawn) [Example 340, N-(1,1-Dioxo-tetrahydro-1,6-thiophen-3-yl)-6-[3-(4-fluoro-phenyl)-isoxazol-4-ylmethoxy]-nicotinamide] | 19.4 nM
O=C(NC1CC1)c1ccc(OCc2conc2-c2ccc(Cl)cc2)nc1 [Example 343, 6-[3-(4-Chloro-phenyl)-isoxazol-4-ylmethoxy]-N-cyclopropyl-nicotinamide] | 12.4 nM
CC(C)NC(=O)c1ccc(OCc2conc2-c2ccc(Cl)cc2)nc1 [Example 344, 6-[3-(4-Chloro-phenyl)-isoxazol-4-ylmethoxy]-N-isopropyl-nicotinamide] | 5.6 nM
O=C(NC1CCOCC1)c1ccc(OCc2conc2-c2ccc(Cl)cc2)nc1 [Example 345, 6-[3-(4-Chloro-phenyl)-isoxazol-4-ylmethoxy]-N-(tetrahydro-pyran-4-yl)-nicotinamide] | 6.4 nM
O=C(NCCO)c1ccc(OCc2conc2-c2ccc(Cl)cc2)nc1 [Example 346, 6-[3-(4-Chloro-phenyl)-isoxazol-4-ylmethoxy]-N-(2-hydroxy-ethyl)-nicotinamide] | 10.9 nM
O=C(NCCCO)c1ccc(OCc2conc2-c2ccc(Cl)cc2)nc1 [Example 348, 6-[3-(4-Chloro-phenyl)-isoxazol-4-ylmethoxy]-N-(3-hydroxy-propyl)-nicotinamide] | 10.3 nM
CC(C)(CO)NC(=O)c1ccc(OCc2conc2-c2ccc(Cl)cc2)nc1 [Example 349, 6-[3-(4-Chloro-phenyl)-isoxazol-4-ylmethoxy]-N-(2-hydroxy-1,1-dimethyl-ethyl)-nicotinamide] | 39.9 nM
CC(C)(CO)CNC(=O)c1ccc(OCc2conc2-c2ccc(Cl)cc2)nc1 [Example 350, 6-[3-(4-Chloro-phenyl)-isoxazol-4-ylmethoxy]-N-(3-hydroxy-2,2-dimethyl-propyl)-nicotinamide] | 22.9 nM
CC(C)(C)OC(=O)N1CC(NC(=O)c2ccc(OCc3conc3-c3ccc(Cl)cc3)nc2)C1 [Example 351, 3-({6-[3-(4-Chloro-phenyl)-isoxazol-4-ylmethoxy]-pyridine-3-carbonyl}-amino)-azetidine-1-carboxylic acid tert-butyl ester] | 55.5 nM
O=C(NC(CO)CO)c1ccc(OCc2conc2-c2ccc(Cl)cc2)nc1 [Example 353, 6-[3-(4-Chloro-phenyl)-isoxazol-4-ylmethoxy]-N-(2-hydroxy-1-hydroxymethyl-ethyl)-nicotinamide] | 5.5 nM
